The text below walks through data of ChEMBL document CHEMBL1201862, “PubChem BioAssay data set” (2004).

Each structure is given as a SMILES string.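 Method: 48-hour compound exposure of cells in 96-well plates, five concentrations, linear interpolation of endpoints. GI50 is the concentration that inhibits growth by half.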 Calls of active or inactive are those of the source. No stated cut-off is given here; in the data, active = GI50 up to about 1.1 µM and inactive = higher.

Among the test systems are OVCAR-3; NCI/ADR-RES; MDA-MB-231; SW-620; HCC 2998; HOP-62; SR; HCT-116; 786-0; UACC-62; HT-29; RPMI-8226; SNB-19; COLO 205; MDA-MB-435; NCI-H522; DU-145; SNB-75; CAKI-1; SK-MEL-28.
Experiment in all cases: NCI tumour cell line growth inhibition, 48 h

For the molecule `O=C(/C=C/c1ccccc1)CCN1CCCCC1`, the GI50 was 31.2 µM (inactive) in the test on OVCAR-3; 38.8 µM (inactive) with NCI/ADR-RES; 26 µM (inactive) in the test with MDA-MB-231; 18.8 µM (inactive) with SW-620; > 100 µM (inactive) in the test on HCC 2998; > 100 µM (inactive) in the test on HOP-62. For the same molecule, the GI50 with SR is 25.9 µM (inactive); in the test with HCT-116, 17.4 µM (inactive); in the test with 786-0, 20.5 µM (inactive); in the test on UACC-62 it was 55.2 µM (inactive); in the test on HT-29, 19.7 µM (inactive); in the test with RPMI-8226, 14.7 µM (inactive). The GI50 is > 100 µM (inactive) in the test on SNB-19; 18 µM (inactive) with COLO 205; 28.2 µM (inactive) in the test on MDA-MB-435; 21.4 µM (inactive) in the test on NCI-H522; > 100 µM (inactive) in the test with DU-145; 36.8 µM (inactive) with SNB-75. The GI50 is 87.9 µM (inactive) with CAKI-1 and 24.2 µM (inactive) in the test with SK-MEL-28.
Regarding `COc1cc2cc(C(=O)N3C[C@H](CCl)c4c3cc(N)c3ccccc43)[nH]c2c(OC)c1OC`, the GI50 was 0.555 µM (active) in the test on OVCAR-3; 0.00791 µM (active) in the test with NCI/ADR-RES; 3.36 µM (inactive) in the test on MDA-MB-231; 0.0233 µM (active) in the test on SW-620; 1.93 µM (inactive) in the test on HCC 2998; 3.05 µM (inactive) with HOP-62. The GI50 was 8.28 µM (inactive) in the test with SR; 0.00695 µM (active) in the test with HCT-116; 5.11 µM (inactive) in the test on 786-0; 2.44 µM (inactive) with UACC-62; 0.00296 µM (active) in the test with HT-29; 0.0275 µM (active) with RPMI-8226. For the same molecule, the GI50 was 0.713 µM (active) in the test with SNB-19; 0.0173 µM (active) in the test on COLO 205; 0.00577 µM (active) with MDA-MB-435; 0.001 µM (active) in the test with NCI-H522; 0.409 µM (active) with DU-145; 2.19 µM (inactive) with SNB-75. In addition, the values for the GI50 in the test on CAKI-1 and in the test on SK-MEL-28 were < 0.005 µM (active) and 0.0172 µM (active), respectively.
In the case of `O=C1C(NCCc2cc(Br)c(O)c(Br)c2)=CC(=O)c2ncccc21`, the GI50 with OVCAR-3 is 1.84 µM (inactive); in the test on NCI/ADR-RES it was 9.2 µM (inactive); in the test on MDA-MB-231, 10.2 µM (inactive); with SW-620, 4.24 µM (inactive); in the test on HCC 2998, 6.58 µM (inactive); with HOP-62, 3.28 µM (inactive). Besides, the GI50 is 1.87 µM (inactive) in the test on SR; 3.71 µM (inactive) in the test on HCT-116; 7.29 µM (inactive) with 786-0; 1.83 µM (inactive) in the test on UACC-62; 3.63 µM (inactive) in the test on HT-29; 4.79 µM (inactive) in the test on RPMI-8226. For the same molecule, the GI50 is 3.86 µM (inactive) with SNB-19; 5.7 µM (inactive) in the test on COLO 205; 1.69 µM (inactive) in the test with MDA-MB-435; 3.17 µM (inactive) with NCI-H522; 3.66 µM (inactive) in the test on DU-145; 1.31 µM (inactive) in the test on SNB-75. Also, the GI50 was 7.29 µM (inactive) with CAKI-1 and 3.21 µM (inactive) in the test on SK-MEL-28.
For `O=c1ccc(=O)c2c1c1[nH]c3ccccc3c1c1c(=O)c3ccccc3c(=O)c21`, the GI50 with OVCAR-3 is > 10 µM (inactive); in the test on NCI/ADR-RES it was > 10 µM (inactive); in the test on MDA-MB-231 it was 5.36 µM (inactive); in the test on SW-620, 8.22 µM (inactive); in the test with HCC 2998, > 10 µM (inactive); in the test on HOP-62 it was > 10 µM (inactive). In addition, the GI50 with SR, in the test with HCT-116, in the test on 786-0, with UACC-62, in the test on HT-29 and in the test on RPMI-8226 was > 10 µM (inactive) each time. The GI50 in the test on SNB-19, in the test on COLO 205, in the test on MDA-MB-435, in the test with NCI-H522, in the test on DU-145 and with SNB-75 was > 10 µM (inactive) throughout. The GI50 in the test with CAKI-1 was 6.71 µM (inactive); with SK-MEL-28 it was > 10 µM (inactive).
On to `COc1cc(/C=C/c2cc(/C=C/c3ccc(O)c(OC)c3)oc(=O)c2)ccc1O`, for which the GI50 with OVCAR-3 was 2.36 µM (inactive); with NCI/ADR-RES it was 4.38 µM (inactive); in the test on MDA-MB-231 it was 13.9 µM (inactive); in the test on SW-620 it was 3.13 µM (inactive); in the test with HCC 2998, 1.81 µM (inactive); with HOP-62, 4.92 µM (inactive). The GI50 in the test with SR is 3.07 µM (inactive); in the test on HCT-116, 3.67 µM (inactive); with 786-0, 5.62 µM (inactive); in the test with UACC-62 it was 4.69 µM (inactive); in the test on HT-29, 2.84 µM (inactive); with RPMI-8226 it was 2.3 µM (inactive). The GI50 was 7.57 µM (inactive) in the test on SNB-19; 13.1 µM (inactive) in the test on COLO 205; 3.38 µM (inactive) in the test on MDA-MB-435; 2.87 µM (inactive) in the test on NCI-H522; 0.553 µM (active) in the test on DU-145; 0.393 µM (active) in the test with SNB-75. The GI50 in the test with CAKI-1 was 3.61 µM (inactive); in the test with SK-MEL-28, 6.32 µM (inactive).
`N/N=C1\CCCc2c1no[n+]2[O-]`: the GI50 with OVCAR-3, in the test with NCI/ADR-RES, in the test with MDA-MB-231, in the test with SW-620, with HCC 2998 and in the test with HOP-62 was > 100 µM (inactive) each time. For the same molecule, the GI50 with SR, with HCT-116, in the test on 786-0, in the test with UACC-62, in the test with HT-29 and in the test with RPMI-8226 was > 100 µM (inactive) throughout. The GI50 in the test with SNB-19, in the test on COLO 205, in the test with MDA-MB-435, with NCI-H522, in the test on DU-145 and with SNB-75 was > 100 µM (inactive) each time. For the same molecule, the GI50 in the test with CAKI-1 and in the test on SK-MEL-28 was > 100 µM (inactive) each time.
`Cc1ccc2[nH]c3c(c2c1)CCC/C3=N/N=C(N)N`: the GI50 in the test on OVCAR-3 is 2.64 µM (inactive); in the test with NCI/ADR-RES, 1.66 µM (inactive); in the test on MDA-MB-231 it was 1.39 µM (inactive); in the test with SW-620, 3.2 µM (inactive); in the test with HCC 2998, 1.7 µM (inactive); with HOP-62, 1.91 µM (inactive). The GI50 in the test with SR was 2.22 µM (inactive); in the test on HCT-116, 2.79 µM (inactive); in the test with 786-0, 2.07 µM (inactive); in the test with UACC-62, 2.16 µM (inactive); in the test on HT-29 it was 1.64 µM (inactive); with RPMI-8226 it was 2.5 µM (inactive). Besides, the GI50 was 1.99 µM (inactive) with SNB-19; 1.62 µM (inactive) in the test with COLO 205; 1.72 µM (inactive) in the test on MDA-MB-435; 1.87 µM (inactive) in the test with NCI-H522; 1.71 µM (inactive) with DU-145; 1.34 µM (inactive) in the test on SNB-75. Moreover, the results for the GI50 in the test on CAKI-1 and in the test on SK-MEL-28 were 1.39 µM (inactive) and 2.24 µM (inactive), respectively.
For the molecule `CC(C)(C)OC(=O)NCCNCCNc1ccccc1`, the GI50 in the test on OVCAR-3, with NCI/ADR-RES, with MDA-MB-231, in the test on SW-620, in the test with HCC 2998 and with HOP-62 was > 100 µM (inactive) each time. In addition, the GI50 in the test with SR, in the test on HCT-116, in the test with 786-0, in the test on UACC-62, with HT-29 and in the test with RPMI-8226 was > 100 µM (inactive) throughout. For the same molecule, the GI50 is > 100 µM (inactive) in the test with SNB-19; > 100 µM (inactive) in the test with COLO 205; > 100 µM (inactive) with MDA-MB-435; > 100 µM (inactive) in the test on NCI-H522; 90.8 µM (inactive) in the test on DU-145; 58.2 µM (inactive) in the test on SNB-75. The GI50 in the test on CAKI-1 and in the test with SK-MEL-28 was > 100 µM (inactive) in each case.
With `O=C(Oc1cncc(Cl)c1)c1cc2ccccc2sc1=O`, the GI50 with OVCAR-3 is 60.5 µM (inactive); in the test on NCI/ADR-RES, 78.3 µM (inactive); in the test on MDA-MB-231, 61.5 µM (inactive); with SW-620, 35.2 µM (inactive); in the test with HCC 2998, 32.7 µM (inactive); in the test on HOP-62 it was 54.3 µM (inactive). For the same molecule, the GI50 with SR was 19.6 µM (inactive); in the test with HCT-116, 78.3 µM (inactive); in the test on 786-0, 63.5 µM (inactive); in the test on UACC-62, 29 µM (inactive); with HT-29, 86.1 µM (inactive); with RPMI-8226, 21.1 µM (inactive). For the same molecule, the GI50 in the test with SNB-19 is 92.5 µM (inactive); with COLO 205, 49.9 µM (inactive); in the test on MDA-MB-435, 29.5 µM (inactive); with NCI-H522, 19.5 µM (inactive); in the test with DU-145, 89.1 µM (inactive); in the test with SNB-75, 27.8 µM (inactive). Moreover, the GI50 with CAKI-1 was > 100 µM (inactive); in the test with SK-MEL-28, 46.5 µM (inactive).
Consider `COC(=O)/C=C(/C=C1/C(C#N)=C(N)N(c2ccc(Cl)cc2)C1(C)/C(=C\C(=O)OC)C(=O)OC)C(=O)OC` (stereo not given), for which the GI50 with OVCAR-3 was 18.4 µM (inactive); in the test on NCI/ADR-RES it was 16.8 µM (inactive); in the test with MDA-MB-231, 29.2 µM (inactive); in the test on SW-620, 15.9 µM (inactive); with HCC 2998, 20 µM (inactive); in the test with HOP-62, 35.9 µM (inactive). Further, the GI50 is 28.5 µM (inactive) in the test with SR; 15.8 µM (inactive) with HCT-116; 18.1 µM (inactive) with 786-0; 12.9 µM (inactive) in the test with UACC-62; 17 µM (inactive) with HT-29; 25.1 µM (inactive) in the test on RPMI-8226. The GI50 with SNB-19 was 41.9 µM (inactive); with COLO 205 it was 15 µM (inactive); in the test with MDA-MB-435, 18.5 µM (inactive); with NCI-H522 it was 5.69 µM (inactive); in the test on DU-145 it was 35.5 µM (inactive); in the test on SNB-75 it was 25.6 µM (inactive). The GI50 in the test on CAKI-1 is 22.8 µM (inactive); with SK-MEL-28 it was 18.9 µM (inactive).
